Counter-ions that a name gives are not always drawn.
These molecules were tested against T1, human liver glycogen phosphorylase a (HLGPa) (Homo sapiens, UniProt P06737) (assay: Human liver glycogen phosphorylase a enzymatic activity assay (coupled, fluorescent resorufin readout, with and without 10 mM glucose)). Settings: human liver glycogen phosphorylase a enzymatic activity assay.
T1 construct: creating a full-length cDNA fused at the 5′ end to codons for methionine-glycine-alanine-histidine; 6xHis tag (leader Met-Gly-Ala-His6-Gly-Gly) (N); made in house; host or cells: E. coli (bacterial expression plasmid pTXK1007LTev)
T1 sequence (P06737 2-847 limits assumed): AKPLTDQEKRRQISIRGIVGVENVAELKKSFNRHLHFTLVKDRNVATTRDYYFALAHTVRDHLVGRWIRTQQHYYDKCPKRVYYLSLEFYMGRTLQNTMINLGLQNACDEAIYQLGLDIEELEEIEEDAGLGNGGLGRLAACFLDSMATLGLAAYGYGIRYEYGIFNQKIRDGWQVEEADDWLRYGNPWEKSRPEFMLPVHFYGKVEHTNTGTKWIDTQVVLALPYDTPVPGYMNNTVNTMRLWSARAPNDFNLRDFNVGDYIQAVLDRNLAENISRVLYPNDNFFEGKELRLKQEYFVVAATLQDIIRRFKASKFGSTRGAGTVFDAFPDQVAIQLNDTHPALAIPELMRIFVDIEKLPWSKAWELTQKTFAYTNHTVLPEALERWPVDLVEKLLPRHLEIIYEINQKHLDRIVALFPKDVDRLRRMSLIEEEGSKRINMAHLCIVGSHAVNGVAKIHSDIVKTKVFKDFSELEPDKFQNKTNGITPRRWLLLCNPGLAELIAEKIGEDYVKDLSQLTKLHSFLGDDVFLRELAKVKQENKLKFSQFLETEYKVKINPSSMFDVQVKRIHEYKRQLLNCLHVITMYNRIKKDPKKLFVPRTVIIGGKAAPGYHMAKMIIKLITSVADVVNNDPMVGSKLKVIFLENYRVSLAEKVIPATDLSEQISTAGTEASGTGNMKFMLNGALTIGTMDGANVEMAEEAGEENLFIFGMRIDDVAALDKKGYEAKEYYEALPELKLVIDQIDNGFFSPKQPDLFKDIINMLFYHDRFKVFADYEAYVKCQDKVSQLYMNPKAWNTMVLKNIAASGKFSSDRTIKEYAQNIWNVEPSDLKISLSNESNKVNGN
Type: biochemical

| IC50 [nM] | Compound |
| --- | --- |
| 7 | Cc1cc(C)c(NC(=O)Nc2cc(-c3cc(F)cc(F)c3)ccc2C(=O)N[C@H](C(=O)O)[C@@H](C)OC(C)(C)C)c(C)c1 [Example 525, N-{[3′,5′-Difluoro-3-({[(2,4,6-trimethylphenyl)amino]carbonyl}amino)-4-biphenylyl]carbonyl}-O-(1,1-dimethylethyl)-L-threonine] |
| 3 | Cc1cc(C)c(NC(=O)Nc2cc(-c3ccc(F)cc3)ccc2C(=O)N[C@H](C(=O)O)[C@@H](C)OC(C)(C)C)c(C)c1 [Example 527, O-(1,1-Dimethylethyl)-N-{[4′-fluoro-3-({[(2,4,6-trimethylphenyl)amino]carbonyl}amino)-4-biphenylyl]carbonyl}-L-threonine] |
| 8 | COc1ccccc1-c1ccc(C(=O)N[C@H](C(=O)O)C2CCCCC2)c(NC(=O)Nc2c(C)cc(C)cc2C)c1 [Example 523, (2S)-cyclohexyl({[2′-(methyloxy)-3-({[(2,4,6-trimethylphenyl)amino]carbonyl}amino)-4-biphenylyl]carbonyl}amino)ethanoic acid] |
| 8060 | Cc1cccc(C)c1NC(=O)Nc1cc2ccccc2cc1C(=O)N[C@@H](CCCCN)C(=O)O [Example 47, N-[3-({[(2,6-dimethylphenyl)amino]carbonyl}amino)-2-naphthoyl]-L-lysine trifluoroacetate] |
| 24100 | O=C(Nc1ccccc1Cl)Nc1cc2ccccc2cc1C(=O)N[C@@H](CO)C(=O)O [Example 28, N-[3-({[(2-chlorophenyl)amino]carbonyl}amino)-2-naphthoyl]-L-serine] |
| 270 | Cc1cccc(Cl)c1NC(=O)Nc1cc2ccccc2cc1C(=O)NC(C(=O)O)c1ccccc1 (stereo not drawn) [Example 123] |
| 19800 | Cc1cccc(C(C)C)c1NC(=O)Nc1cc2ccccc2cc1C(=O)N[C@@H](C(=O)O)C1CCCCC1 [Example 109, (2R)-cyclohexyl{[3-({[(2-isopropyl-6-methylphenyl)amino]carbonyl}amino)-2-naphthoyl]amino}acetic acid] |
| 4640 | Cc1cccc(C)c1NC(=O)Nc1cc2ccccc2cc1C(=O)N[C@@H](CCCNC(=N)N)C(=O)O [Example 52, N-[3-({[(2,6-dimethylphenyl)amino]carbonyl}amino)-2-naphthoyl]-L-arginine] |
| 890 | CC[C@H](C)[C@H](NC(=O)c1cc2ccccc2cc1NC(=O)Nc1c(C)cccc1C)C(=O)O [Example 23, N-[3-({[(2,6-dimethylphenyl)amino]carbonyl}amino)-2-naphthoyl]-L-isoleucine] |

Continued, molecule first:

| Compound | IC50 [nM] |
| --- | --- |
| Cc1cc(C)c(NC(=O)Nc2sc(-c3ccc(OC(F)(F)F)cc3)cc2C(=O)O)c(C)c1 [Example 430, 5-{4-[(trifluoromethyl)oxy]phenyl}-2-({[(2,4,6-trimethylphenyl)amino]carbonyl}amino)-3-thiophenecarboxylic acid] | 740 |
| Cc1cccc(Cl)c1NC(=O)Nc1cc(F)c(F)cc1C(=O)N[C@@H](CC1CCCCC1)C(=O)O [Example 114, N-[2-({[(2-chloro-6-methylphenyl)amino]carbonyl}amino)-4,5-difluorobenzoyl]-3-cyclohexyl-L-alanine] | 18700 |
| O=C(Nc1sc(-c2ccc(OC(F)(F)F)cc2)cc1C(=O)O)Nc1c(Cl)cc(OC(F)(F)F)cc1Cl [Example 428, 2-{[({2,6-dichloro-4-[(trifluoromethyl)oxy]phenyl}amino)carbonyl]amino}-5-{4-[(trifluoromethyl)oxy]phenyl}-3-thiophenecarboxylic acid] | 1220 |
| COc1cc(NC(=O)Nc2c(C)cccc2Cl)c(C(=O)N[C@@H](CC(=O)O)C(=O)O)cc1OC [Example 67, N-[2-({[(2-chloro-6-methylphenyl)amino]carbonyl}amino)-4,5-dimethoxybenzoyl]-L-aspartic acid] | 19800 |
| O=C(Nc1sc(-c2cccnc2)cc1C(=O)O)Nc1c(Cl)cccc1Cl [Example 414, 2-({[(2,6-dichlorophenyl)amino]carbonyl}amino)-5-(3-pyridinyl)-3-thiophenecarboxylic acid] | 2720 |
| Cc1ccccc1NC(=O)Nc1sc2ccccc2c1C(=O)N[C@H](C(=O)O)C1CCCCC1 [Example 141, (2S)-cyclohexyl({[2-({[(2-methylphenyl)amino]carbonyl}amino)-1-benzothien-3-yl]carbonyl}amino)acetic acid] | 8710 |
| COc1ccc(-c2cc(NC(=O)Nc3c(C)cc(C)cc3C)c(C(=O)NC3(C(=O)O)CCCC3)s2)cc1 [Example 451, 1-({[5-[4-(methyloxy)phenyl]-3-({[(2,4,6-trimethylphenyl)amino]carbonyl}amino)-2-thienyl]carbonyl}amino)cyclopentanecarboxylic acid] | 47 |

Same assay, conditions: human liver glycogen phosphorylase a; table does not say whether with or without 10 mM glucose

| IC50 [nM] | Compound |
| --- | --- |
| 2 | COc1ccc(-c2ccc(C(=O)N[C@H](C(=O)O)[C@@H](C)OC(C)(C)C)c(NC(=O)Nc3c(C)cc(C)cc3C)c2)cc1 [Example 225, O-(1,1-Dimethylethyl)-N-{[4′-(methyloxy)-3-({[(2,4,6-trimethylphenyl)amino]carbonyl}amino)-4-biphenylyl]carbonyl}-L-threonine] |
| 10400 | CCCCc1ccc(NC(=O)Nc2cc3ccccc3cc2C(=O)N[C@H](C(=O)O)C2CCCCC2)cc1 [Example 247, (2S)-({[3-({[(4-butylphenyl)amino]carbonyl}amino)-2-naphthalenyl]carbonyl}amino)(cyclohexyl)ethanoic acid] |
| 6 | COc1ccc(-c2ccc(C(=O)N[C@@H](CC(=O)O)C(=O)O)c(NC(=O)Nc3c(C)cc(C)cc3C)c2)cc1 [Example 362, N-{[4′-(methyloxy)-3-({[(2,4,6-trimethylphenyl)amino]carbonyl}amino)-4-biphenylyl]carbonyl}-L-aspartic acid] |
| 100 | CNC(=O)NC1CCC(C(NC(=O)c2cc3ccccc3cc2NC(=O)Nc2c(C)cc(C)cc2C)C(=O)O)CC1 (mixture of isomers) [Example 352, (cis and trans)-(4-{[(methylamino)carbonyl]amino}cyclohexyl)({[3-({[(2,4,6-trimethylphenyl)amino]carbonyl}amino)-2-naphthalenyl]carbonyl}amino)acetic acid] |

More lines, now with the values behind:

| Compound | IC50 [nM] |
| --- | --- |
| Cc1cc(C)c(NC(=O)Nc2cc(F)c(F)cc2C(=O)N[C@H](C(=O)O)C2CCCCC2)c(C)c1 [Example 230, (2S)-Cyclohexyl({[4,5-difluoro-2-({[(2,4,6-trimethylphenyl)amino]carbonyl}amino)phenyl]carbonyl}amino)ethanoic acid] | 58 |
| COc1ccc(-c2cnc(C(=O)NC3(C(=O)O)CCCCCC3)c(NC(=O)Nc3c(C)cc(C)cc3C)c2)cc1 [Example 325, 1-({[5-[4-(methyloxy)phenyl]-3-({[(2,4,6-trimethylphenyl)amino]carbonyl}amino)-2-pyridinyl]carbonyl}amino)cycloheptanecarboxylic acid] | 31 |
| Cc1cc(C)c(NC(=O)Nc2cc(-c3ccc(CN(C)C)cc3)ccc2C(=O)N[C@H](C(=O)O)C2CCCCC2)c(C)c1 [Example 213, (2S)-Cyclohexyl({[4′-[(dimethylamino)methyl]-3-({[(2,4,6-trimethylphenyl)amino]carbonyl}amino)-4-biphenylyl]carbonyl}amino)ethanoic acid] | 24 |
| Cc1cc(C)c(NC(=O)Nc2cc(-c3ccc(CN4CCOCC4)cc3)ccc2C(=O)N[C@H](C(=O)O)C2CCCCC2)c(C)c1 [Example 217, (2S)-cyclohexyl({[4′-(4-morpholinylmethyl)-3-({[(2,4,6-trimethylphenyl)amino]carbonyl}amino)-4-biphenylyl]carbonyl}amino)ethanoic acid] | 9 |

Source: patent publication US20070249670A1, “Glycogen Phosphorylase Inhibitor Compounds and Pharmaceutical Compositions Thereof” (SMITHKLINE BEECHAM CORPORATION, priority 2004, published 2007)
